The pIC50 is the negative decadic logarithm of the IC50, by convention in mol/L.

pIC50: −log10 of the molar value.

This note sets out measurements from ChEMBL document CHEMBL1133907, “Discovery of thioazepinone ligands for Src SH2: from non-specific to specific binding” (Bioorg Med Chem Lett, 2001).

Assay [1] deals with T1, Proto-oncogene tyrosine-protein kinase Src (Homo sapiens, UniProt P12931). The assay is described as follows: Binding affinity was determined on Src protein tyrosine kinase SH2 domain using scintillation proximity assay (SPA). On the technique in general: SPA uses beads or plates that emit light when radiolabelled molecules are held near them.
T1 sequence (P12931 2-536 limits assumed): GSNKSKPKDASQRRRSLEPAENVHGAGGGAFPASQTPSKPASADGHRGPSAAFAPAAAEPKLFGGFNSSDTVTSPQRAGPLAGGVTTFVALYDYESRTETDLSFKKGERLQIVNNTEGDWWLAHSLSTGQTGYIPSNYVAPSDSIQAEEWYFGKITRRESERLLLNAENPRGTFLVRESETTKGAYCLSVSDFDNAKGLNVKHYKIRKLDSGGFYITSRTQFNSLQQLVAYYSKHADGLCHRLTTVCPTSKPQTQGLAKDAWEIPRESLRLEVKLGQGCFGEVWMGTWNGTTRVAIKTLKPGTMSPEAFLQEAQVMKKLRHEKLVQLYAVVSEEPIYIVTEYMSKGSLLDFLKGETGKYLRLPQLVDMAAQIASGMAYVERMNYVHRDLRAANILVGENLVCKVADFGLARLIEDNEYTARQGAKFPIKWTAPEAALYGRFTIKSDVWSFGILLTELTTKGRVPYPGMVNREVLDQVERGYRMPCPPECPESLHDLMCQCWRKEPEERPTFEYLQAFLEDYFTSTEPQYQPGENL
Assay [2] addresses T1, Proto-oncogene tyrosine-protein kinase Src. The assay is described as follows: Binding affinity was determined on Src protein tyrosine kinase SH2 domain using fluorescence polarization assay with 2% DMSO in buffer solution.
For assay [3] the target is unchanged. The assay is described as follows: Binding affinity for Src protein tyrosine kinase SH2 domain.
Assay [4] shares this target. The assay is described as follows: Binding affinity for Src protein tyrosine kinase SH2 domain using fluorescence polarization assay with 20% DMSO in buffer solution. In general terms: In fluorescence polarisation assays a small probe gives low polarisation when free and higher when bound to something large.

`CC(=O)N[C@@H](Cc1ccc(OP(=O)(O)O)cc1)C(=O)N[C@H]1CSCCN(Cc2ccc(-c3ccccc3)cc2)C1=O` had a pIC50 in assay [1] of 7.05.

In turn, `COc1ccc(C2Sc3ccccc3N(CC(=O)Nc3cccc(Oc4ccccc4)c3)C(=O)C2NC(=O)[C@H](Cc2ccc(OP(=O)(O)OCc3ccccc3)cc2)NC(=O)OC(C)(C)C)cc1` (stereo partly drawn) had a pIC50 in assay [2] of 4.85.

In turn, `COc1ccc(C2Sc3ccccc3N(CC(=O)Nc3ccccc3OC)C(=O)C2NC(=O)[C@H](Cc2ccc(OP(=O)(O)OCc3ccccc3)cc2)NC(=O)OC(C)(C)C)cc1` (stereo partly drawn) showed a negative logarithm of the IC50 (pIC50) in assay [2] of 4.02.

Consider `CC(=O)N[C@@H](Cc1ccc(OP(=O)(O)O)cc1)C(=O)N[C@H]1CSCCN(Cc2cccc(OC(F)(F)F)c2)C1=O`, for which the pIC50 in assay [2] was 6.40.

For `CC(=O)N[C@@H](Cc1ccc(OP(=O)(O)O)cc1)C(=O)N[C@H]1CSCCN(Cc2cccc(-c3ccccc3C#N)c2)C1=O`, the pIC50 in assay [1] is 6.52.

`CC(C)(C)OC(=O)N[C@@H](Cc1ccc(OP(=O)(O)O)cc1)C(=O)NC1CSCCN(CCCC2CCCCC2)C1=O` (stereo partly drawn): the pIC50 is 3.94 in assay [2] and 5.85 in assay [3].

With `COc1ccc(C2Sc3ccccc3N(CC(=O)Nc3cccc4ccccc34)C(=O)C2NC(=O)[C@H](Cc2ccc(OP(=O)(O)OCc3ccccc3)cc2)NC(=O)OC(C)(C)C)cc1` (stereo in doubt; 3l), the negative logarithm of the IC50 (pIC50) in assay [2] was 3.88.

In assay [2], `CC(=O)N[C@@H](Cc1ccc(OP(=O)(O)O)cc1)C(=O)N[C@H]1CSCCN(Cc2cccc(C(F)(F)F)c2)C1=O` gave a pIC50 of 5.80.

`CC(=O)N[C@@H](Cc1ccc(OP(=O)(O)O)cc1)C(=O)N[C@H]1CSCCN(Cc2ccc3c(c2Cl)OCO3)C1=O` showed a pIC50 in assay [1] of 5.92.

In assay [2], `COc1ccc(C2Sc3ccccc3N(CC(=O)NCc3cccc4ccccc34)C(=O)C2NC(=O)[C@H](Cc2ccc(OP(=O)(O)OCc3ccccc3)cc2)NC(=O)OC(C)(C)C)cc1` (stereo in doubt; 3a) showed a pIC50 of 3.89.

Consider `CC(=O)N[C@@H](Cc1ccc(OP(=O)(O)O)cc1)C(=O)N[C@H]1CSCCN(CC(=O)c2ccc(N(C)C)cc2)C1=O`, for which the pIC50 in assay [1] was 5.03.

In the case of `COc1ccc(C2Sc3ccccc3N(CC(=O)NCc3cccc4ccccc34)C(=O)C2NC(=O)c2cc3cc(OP(=O)(O)OCc4ccccc4)ccc3[nH]2)cc1` (stereo not drawn), the pIC50 in assay [2] was 4.49.

As to `COc1ccc(C2Sc3ccccc3N(CCCC3CCCCC3)C(=O)C2NC(=O)[C@H](Cc2ccc(OP(=O)(O)OCc3ccccc3)cc2)NC(=O)OC(C)(C)C)cc1` (stereo partly drawn), the pIC50 in assay [2] is 5.19; in assay [4] it was 4.55; in assay [3] it was less than 4.00.

For the molecule `COc1ccc(C2Sc3ccccc3N(Cc3ccc(-c4ccccc4C(=O)OC(C)(C)C)cc3)C(=O)C2NC(=O)[C@H](Cc2ccc(OP(=O)(O)OCc3ccccc3)cc2)NC(=O)OC(C)(C)C)cc1` (stereo partly drawn), in assay [2], the pIC50 was 4.74.

Molecule `COc1ccc(C2Sc3ccccc3N(CC(=O)NCc3cccc4ccccc34)C(=O)C2NC(=O)[C@H](Cc2ccc(OP(=O)(O)OCc3ccccc3)cc2)NC(=O)OC(C)(C)C)cc1` (stereo in doubt; 3b) showed a negative-log IC50 (pIC50) in assay [2] of 3.93.

On to `COc1ccc(C2Sc3ccccc3N(CC(=O)NCc3cccc4ccccc34)C(=O)C2NC(=O)c2ccc(OP(=O)(O)OCc3ccccc3)cc2)cc1` (stereo not drawn), for which the pIC50 in assay [2] is 4.70.

In assay [2], `COc1ccc(C2Sc3ccccc3N(Cc3ccccc3)C(=O)C2NC(=O)[C@H](Cc2ccc(OP(=O)(O)OCc3ccccc3)cc2)NC(=O)OC(C)(C)C)cc1` (stereo partly drawn) showed a pIC50 of 4.34.

For `COC(=O)c1cccc(CN2CCSC[C@H](NC(=O)[C@H](Cc3ccc(OP(=O)(O)O)cc3)NC(C)=O)C2=O)c1`, the pIC50 in assay [1] was 6.89.

Consider `COc1ccc(C2Sc3ccccc3N(CC(=O)NCc3cccc4ccccc34)C(=O)C2NC(=O)Cc2ccc(OP(=O)(O)OCc3ccccc3)cc2)cc1` (stereo not drawn), for which the negative-log IC50 (pIC50) in assay [2] was 5.30.

`COc1ccc(C2Sc3ccccc3N(CC(=O)Nc3cccc4ccccc34)C(=O)C2NC(=O)[C@H](Cc2ccc(OP(=O)(O)OCc3ccccc3)cc2)NC(=O)OC(C)(C)C)cc1` (stereo in doubt; 3n): the pIC50 in assay [2] was 4.64.

Regarding `CC(=O)N[C@@H](Cc1ccc(OP(=O)(O)O)cc1)C(=O)N[C@H]1CSCCN(Cc2cccc(C(=O)c3ccccc3)c2)C1=O`, the pIC50 in assay [2] was 5.80.

Take `COc1ccc(C2Sc3ccccc3N(CC(=O)NCc3cccc4ccccc34)C(=O)C2NC(=O)c2ccc3cc(OP(=O)(O)OCc4ccccc4)ccc3c2)cc1` (stereo not drawn): the pIC50 in assay [2] was 4.64.

In the case of `COc1ccc(C2Sc3ccccc3N(CC(=O)NCc3cccc4ccccc34)C(=O)C2NC(=O)CCc2ccc(OP(=O)(O)OCc3ccccc3)cc2)cc1` (stereo not drawn), the pIC50 in assay [2] was 3.47.

`COc1ccc(C2Sc3ccccc3NC(=O)C2NC(=O)[C@H](Cc2ccc(OP(=O)(O)OCc3ccccc3)cc2)NC(=O)OC(C)(C)C)cc1` (stereo partly drawn): the pIC50 in assay [2] was 3.06.

For `CC(C)(C)OC(=O)N[C@@H](Cc1ccc(OP(=O)(O)O)cc1)C(=O)NC1CSc2ccccc2N(CCCC2CCCCC2)C1=O` (stereo partly drawn), the pIC50 in assay [2] was 5.00; in assay [4], 4.96; in assay [3] it was 6.00.

Take `CC(C)(C)OC(=O)N[C@@H](Cc1ccc(OP(=O)(O)OCc2ccccc2)cc1)C(=O)NC1CSc2ccccc2N(CCCC2CCCCC2)C1=O` (stereo partly drawn): the pIC50 in assay [2] is 4.59; in assay [4] it was 4.06; in assay [3] it was 4.89.

With `COc1ccc(C2Sc3ccccc3N(C(C(=O)Nc3cccc4ccccc34)c3ccccc3)C(=O)C2NC(=O)[C@H](Cc2ccc(OP(=O)(O)OCc3ccccc3)cc2)NC(=O)OC(C)(C)C)cc1` (stereo partly drawn), the pIC50 in assay [2] is 4.64.

`COc1ccc(C2Sc3ccccc3N(CC(=O)Nc3ccc(Oc4ccccc4)cc3)C(=O)C2NC(=O)[C@H](Cc2ccc(OP(=O)(O)OCc3ccccc3)cc2)NC(=O)OC(C)(C)C)cc1` (stereo partly drawn) had a negative logarithm of the IC50 (pIC50) in assay [2] of 4.54.

In the case of `COc1ccc(C2Sc3ccccc3N(CC(=O)Nc3cccc4ccccc34)C(=O)C2NC(=O)[C@H](Cc2ccc(OP(=O)(O)OCc3ccccc3)cc2)NC(=O)OC(C)(C)C)cc1` (stereo in doubt; 3c), the pIC50 in assay [2] is 3.72.

On to `COc1ccc(C2Sc3ccccc3N(CC(=O)NCc3cccc4ccccc34)C(=O)C2NC(=O)c2ccc3c(Cl)c(OP(=O)(O)OCc4ccccc4)ccc3c2)cc1` (stereo not drawn), for which, in assay [2], the pIC50 is 4.57.

As for `CC[C@H](C)[C@H](NC(=O)[C@H](CCC(=O)O)NC(=O)[C@H](CCC(=O)O)NC(=O)[C@@H](N)Cc1ccc(OP(=O)(O)O)cc1)C(=O)O`, the negative-log IC50 (pIC50) in assay [2] was 5.19; in assay [4] it was 5.30; in assay [3], 6.82.

As for `COc1ccc(C2Sc3ccccc3N(CC(=O)Nc3cccc4ccccc34)C(=O)C2NC(=O)[C@H](Cc2ccc(OP(=O)(O)OCc3ccccc3)cc2)NC(=O)OC(C)(C)C)cc1` (stereo in doubt; 3m), the pIC50 in assay [2] was 4.59.

With `CC(C)(C)OC(=O)N[C@H](Cc1ccc(OP(=O)(O)O)cc1)C(=O)NC1CSc2ccccc2N(CCCC2CCCCC2)C1=O` (stereo partly drawn), the pIC50 was 3.37 in assay [2] and 4.74 in assay [3].
